According to patent US20210128529A1, “DRUG CONTAINING PYRAZOLONE DERIVATIVE” (NOBELPHARMA CO., LTD., priority 2017, published 2021):
In brackets after ≈: the same amount, converted by molar mass.

Assay: Saturation solubility of edaravone in water
Format: physicochemical

- solubility: 2000 µg/mL (≈ 11.5 mM)
Compound: CC1=NN(c2ccccc2)C(=O)C1 [edaravone, 3-Methyl-1-phenyl-2-pyrazolin-5-one]
